In US5221616A, “Prevention of spontaneous complement activation in mammalian biological fluids” (Quidel Corporation, priority 1988, dated 1993):

Assays:
C3 = molecular target: T1, C3 (Homo sapiens, UniProt P01024); assay: polyhydroxyl compounds in Buffer B mixed with EDTA-NHP: iC3b and C3d,g/iC3b fragment EIA; type: biochemical; conditions: final concentration 2M, 22° C. for 48 hr
T1 construct: 250 μL of freshly drawn EDTA-normal human plasma (EDTA-NHP); from tissue; host or cells: normal human blood plasma (EDTA plasma; in A12 also citrate and heparin plasma)
T1 sequence (P01024 672-1663 limits assumed): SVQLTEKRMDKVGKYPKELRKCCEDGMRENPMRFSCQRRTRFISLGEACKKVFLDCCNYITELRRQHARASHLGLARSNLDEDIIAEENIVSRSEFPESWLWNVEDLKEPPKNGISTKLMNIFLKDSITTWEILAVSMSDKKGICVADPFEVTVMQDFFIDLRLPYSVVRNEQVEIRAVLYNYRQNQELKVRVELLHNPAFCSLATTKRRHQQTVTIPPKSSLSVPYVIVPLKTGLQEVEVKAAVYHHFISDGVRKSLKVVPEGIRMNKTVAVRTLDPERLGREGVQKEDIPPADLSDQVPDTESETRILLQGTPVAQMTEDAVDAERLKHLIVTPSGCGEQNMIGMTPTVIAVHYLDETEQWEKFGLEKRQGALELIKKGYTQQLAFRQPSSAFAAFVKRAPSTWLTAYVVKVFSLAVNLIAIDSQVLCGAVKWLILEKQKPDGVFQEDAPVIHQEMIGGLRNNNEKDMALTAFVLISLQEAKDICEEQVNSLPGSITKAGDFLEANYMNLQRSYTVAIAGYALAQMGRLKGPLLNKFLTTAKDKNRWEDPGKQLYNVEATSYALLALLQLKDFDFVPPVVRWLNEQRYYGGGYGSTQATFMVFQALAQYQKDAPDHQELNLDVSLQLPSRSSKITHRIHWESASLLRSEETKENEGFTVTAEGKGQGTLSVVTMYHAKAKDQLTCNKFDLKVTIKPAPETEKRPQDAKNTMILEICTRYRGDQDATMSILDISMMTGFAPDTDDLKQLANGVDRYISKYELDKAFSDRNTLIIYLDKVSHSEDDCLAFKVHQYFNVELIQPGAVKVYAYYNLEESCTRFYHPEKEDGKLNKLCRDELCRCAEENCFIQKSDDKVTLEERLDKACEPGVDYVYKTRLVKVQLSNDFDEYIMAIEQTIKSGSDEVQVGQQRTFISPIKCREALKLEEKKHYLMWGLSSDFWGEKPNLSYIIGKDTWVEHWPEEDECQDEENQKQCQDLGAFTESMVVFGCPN
T1 sequence (P01024 23-667 limits assumed): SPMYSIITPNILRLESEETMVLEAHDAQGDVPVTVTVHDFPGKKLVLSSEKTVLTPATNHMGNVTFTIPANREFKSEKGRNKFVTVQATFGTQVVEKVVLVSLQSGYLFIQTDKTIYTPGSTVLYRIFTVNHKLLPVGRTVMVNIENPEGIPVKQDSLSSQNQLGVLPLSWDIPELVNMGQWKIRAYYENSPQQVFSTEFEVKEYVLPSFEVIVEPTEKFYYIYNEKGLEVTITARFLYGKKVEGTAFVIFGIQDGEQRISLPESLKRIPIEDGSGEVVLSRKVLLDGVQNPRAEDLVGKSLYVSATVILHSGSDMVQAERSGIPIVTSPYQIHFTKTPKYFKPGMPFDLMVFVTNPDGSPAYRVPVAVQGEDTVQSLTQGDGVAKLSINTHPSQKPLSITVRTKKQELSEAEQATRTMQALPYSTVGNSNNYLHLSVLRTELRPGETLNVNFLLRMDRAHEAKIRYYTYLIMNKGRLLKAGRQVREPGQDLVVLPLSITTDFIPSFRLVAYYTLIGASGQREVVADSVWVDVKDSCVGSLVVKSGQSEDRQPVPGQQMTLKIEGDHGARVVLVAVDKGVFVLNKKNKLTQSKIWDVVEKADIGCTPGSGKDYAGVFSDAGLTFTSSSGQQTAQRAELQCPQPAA
Experimental: (§1) An extensive series of experiments were conducted to examine the ability of a large variety of polyhydroxyl compounds to prevent the spontaneous activation of C in EDTA-NHP during in vitro storage at 22° C for 48 hr. EDTA-NHP was mixed with an equal volume of Buffer B containing the polyhydroxyl compound to be tested. In these experiments Buffer B consisted of 40 mM EDTA and 30 IU sodium heparin/mL dissolved in deionized water, pH 7.2. The final concentration of polyhydroxyl compound dissolved in Buffer B varied for each compound due to differences in solubility. For each set of experiments, EDTA-NHP was also diluted and mixed with an equal volume of PBS (untreated control). The EDTA-NHP samples mixed with each polyhydroxyl compound dissolved in Buffer B and the corresponding untreated controls were incubated at 22° C. for 48 hr, stored at -70° C. and subsequently assayed for C4d, iC3b, C3d,g/iC3b and Bb complement fragment levels as well as for circulating immune complex levels using the Raji Cell Replacement EIA. […] This conclusion was based upon the iC3b percent protection values determined for each of the polyhydroxyl compounds (treated samples) as listed in FIG. 14.
(§2) The concentrations, expressed as μg analyte/mL, of a number of different activation products of spontaneous complement activation were measured in the course of these experiments. In an effort to normalize the data obtained from the various determinations so that the results from different assays could be directly compared to one another, a percent protection value was calculated for each analyte measured. The precent protection values were calculated by dividing the μg analyte/mL in the non-incubated, time-zero control sample by the μg analyte/mL in the experimental sample, multiplied by 100%. A percent protection value of 70 to 130% for any given analyte measured in an experimental sample was considered to indicate that the invention formulation tested was fully effective at providing protection against the occurrence of spontaneous complement activation. Ideally, the effective composition formulation would provide full protection against the occurrence of spontaneous complement activation in a complement-containing sample for all of the analytes measured. In fact, this was the case with several polyhydroxyl compounds when they were present in sufficiently high concentrations in a preferred embodiment of the invention.
A plasma dilution of 1:50 and a serum dilution of 1:100 were used in the iC3b fragment EIA tests. The immunochemical reaction specificity of MoAb 013III-1.1.6.1 has been published previously in abstract form, W. P. Kolb, et al., Fed. Proc. 44:990 (1985).
A plasma dilution of 1:250 and a serum dilution of 1:500 were used in the C3d,g/iC3b EIA tests. […] 135:2015-2019 (1985); Y. Kanayama, et al., J. Immunol. Meth. 88:33-36 (1986). The immunochemical reaction specificity of the Cytotech MoAb 013III-31.4.3.2.2has been published previously in abstract form, W. P. Kolb, et al., FASEB Journal 2:A1834 (1988).

Factor B = molecular target: T2, Factor B (Homo sapiens, UniProt P00751); assay: polyhydroxyl compounds in Buffer B mixed with EDTA-NHP: Bb fragment EIA; type: biochemical; conditions: final concentration 2M, 22° C. for 48 hr
T2 construct: from tissue; host or cells: normal human EDTA plasma (EDTA-NHP)
T2 sequence (P00751 26-764): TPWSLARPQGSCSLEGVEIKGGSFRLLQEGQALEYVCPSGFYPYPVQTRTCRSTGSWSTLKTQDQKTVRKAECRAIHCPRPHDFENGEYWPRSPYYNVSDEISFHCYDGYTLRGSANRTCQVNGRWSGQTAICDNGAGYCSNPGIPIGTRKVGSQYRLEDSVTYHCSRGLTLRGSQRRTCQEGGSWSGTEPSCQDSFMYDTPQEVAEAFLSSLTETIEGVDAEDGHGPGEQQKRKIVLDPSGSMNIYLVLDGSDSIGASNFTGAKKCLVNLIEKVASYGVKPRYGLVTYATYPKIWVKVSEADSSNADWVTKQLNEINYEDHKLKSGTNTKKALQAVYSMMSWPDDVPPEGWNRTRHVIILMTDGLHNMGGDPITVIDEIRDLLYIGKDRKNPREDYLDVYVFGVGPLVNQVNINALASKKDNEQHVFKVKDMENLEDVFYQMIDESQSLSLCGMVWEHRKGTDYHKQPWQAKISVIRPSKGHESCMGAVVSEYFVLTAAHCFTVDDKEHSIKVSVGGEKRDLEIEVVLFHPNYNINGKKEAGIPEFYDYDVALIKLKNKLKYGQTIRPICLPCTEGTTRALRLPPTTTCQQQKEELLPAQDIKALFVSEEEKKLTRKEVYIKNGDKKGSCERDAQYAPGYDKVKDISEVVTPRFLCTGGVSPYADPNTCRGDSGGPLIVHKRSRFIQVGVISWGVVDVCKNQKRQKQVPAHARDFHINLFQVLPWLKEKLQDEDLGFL
Experimental: as §1, with “control).” for “control). The EDTA-NHP samples mixed with each polyhydroxyl compound dissolved in Buffer B and the corresponding untreated controls were incubated at 22° C. for 48 hr, stored at -70° C. and subsequently assayed for C4d, iC3b, C3d,g/iC3b and Bb complement fragment levels as well as for circulating immune complex levels using the Raji Cell Replacement EIA.”
The concentrations, expressed as μg analyte/mL, of a number of different activation products of spontaneous complement activation were measured in the course of these experiments. In an effort to normalize the data obtained from the various determinations so that the results from different assays could be directly compared to one another, a percent protection value was calculated for each analyte measured. […]

complement = assay: protection against spontaneous complement activation in complement-containing samples during in vitro storage (summary of fragment EIAs); type: biochemical, human
Experimental: A method for screening compounds to determine the complement preventing effectiveness thereof is described in detail in the course of the following experimental description and discussion. The method essentially comprises treating complement-containing samples with various doses of the test compounds, storing the thus-treated sample at conventional storage temperature for a minimum of about 48 hours and determining the extent of complement activation which occurs during the storage period by performing assays on the sample for various complement activation products. The results are compared with determination of the level of the same activation products at the beginning of the storage period, i.e., a non-incubated control sample. A non-treated control, comprising an identical sample diluted with phosphate buffered saline (PBS) in a volume ratio identical to that of the sample and polyhydroxyl solution is similarly assayed.
as §2
A percent protection value range of 70 to 130% was used as a criterion to define that a given invention embodiment was able to provide full protection against spontaneous complement activation for the following reasons: The coefficient of variation for the EIA kits employed in these studies ranged from 10-30% when analyte levels were measured in the very low range of values found in freshly-drawn normal human plasma samples. Therefore, in order to ensure that a given result fell within the variability range of the assays employed, a percent protection value between 70 and 130% was considered to represent a fully protective effect.

prevention of spontaneous activation of C3 (C3): completely prevented
prevention of spontaneous activation of Factor B (Bb fragment production) (Factor B): completely prevented
SMILES: OC[C@H]1O[C@@H](O)[C@H](O)[C@@H](O)[C@@H]1O [β-D-glucose]
final concentration identified as particularly effective (complement; added to a complement-containing sample): ≥ 1.33 M
range of final concentrations found to provide protection against spontaneous complement activation (complement; complement-containing samples during in vitro storage): 0.5 to 4 M
acceptable range of final concentration at which spontaneous C activation will be prevented (complement; ingredient of the formulation): ≥ 1.3 M
